Assays:
NCI-H292 cells = assay: Mucin production inhibitory action (EGF-stimulated NCI-H292 cells, mucin in culture supernatant by ELISA); assay type: cell-based, human; conditions: for inhibition at 1 µM / inhibition at 3 µM / inhibition at 10 µM: Homo sapiens, EGF 25 ng/mL, 48 hours, NCI-H292 cells, read-out: Percent inhibition of mucin production (%); for inhibition at 1 µM: Concentration 1 µM; for inhibition at 3 µM: Concentration 3 µM; for inhibition at 10 µM: Concentration 10 µM; for production of mucin (effect in words): summary of Table 1, EGF-stimulated NCI-H292 cells
Protocol: The test was carried out in accordance with a partially modified method of Takeyama et al. (Proc. Natl. Acad. Sci. USA, Vol. 96, P. 3081-3086, 1999). The specific procedure will be described as follows. NCI-H292 cells, which are human respiratory tract epithelial cell lines, were suspended in a 10%FCS-containing RPMI 1640 culture medium, and disseminated to a 12-well culture plate so that the cell concentration of each well was adjusted to 2 x 10^5 cell/well, followed by culturing for two days. Subsequently, the culture medium was changed to a 0.2%FCS-containing RPMI culture medium, followed by culturing for another two days. The thus-cultured cells were employed in the test. Each test drug and EGF (25 ng/mL) were added to each well, and the mucin level of the supernatant of the culture 48 hours after initiation of culturing was determined through the ELISA method. Percent inhibition (%) with regard to control value was calculated by supposing the difference produced by subtracting normal value from control value to be 100%. In this case, the control value is defined as the mucin amount in the culture supernatant to which only EGF was added, while the normal value is defined as the muchin amount in the culture supernatant containing neither of test drug and EGF. In addition, cilomilast (J. Pharmacol. Exp. Ther., Vol. 284, p. 420-426, 1998) and roflumilast (J. Pharmacol. Exp. Ther., Vol. 297, p. 267-279, 2001), which are typical phosphodiesterase (IV) inhibitors were also tested in a similar manner.

[1] = test system: goblet cells in the respiratory tract epithelium; assay: Inhibitory effect on hyperplasia of goblet cells in the respiratory tract epithelium (Sephadex-induced, PAS staining); assay type: in vivo, Lewis Wistar rats; conditions: Fig. 1; oral, once per day for seven days; Sephadex-treated rats; numbers only in the figure
Protocol: The test was carried out in accordance with a partially modified method of Matsubara et al. (Int. Arch. Allergy Immunol., Vol. 116, p. 67-75, 1998). The specific procedure will be described as follows. To each of the 7-week old male Lewis Wistar rats, a Sephadex suspension (0.1 mg/mL/head) was intravenously administered (total three times: day 0, 2, and 5). Two days after the final administration, the rat was slaughtered by exsanguination under anesthetic with pentobarbital. The lung tissue was extirpated from the rat and immersed in a neutral formalin buffer for fixation. […] The ratio of the PAS-stained positive area to the respiratory tract epithelium was calculated by use of an image analysis software (Winroof). Each test compound was suspended in 0.5% hydroxypropylmethyl cellulose (HPMC), and the suspension was orally administered once per day for continuous seven days from the start of administration of Sephadex. In the Figure, numerical data are represented by mean value ± standard deviation (each group: 11-12 samples).

Brown Norway rats = assay: Inhibitory effect on hyper-secretion of respiratory tract mucus (LPS-induced, mucus in BALF by UEA-1 lectin assay); assay type: in vivo; conditions: mean ± standard deviation; for Mucus level of BALF: LPS 100 µg intratracheal, 6 samples; for Percent inhibition (% ): mucus level of BALF vs control and normal
Protocol: The procedure of the test was based on a partially modified method of Tesfaigzi et al. (Am. J. Physiol. Lung Cell Mol. Physiol., Vol. 279, p. L1210-L1217, 2000). The specific procedure will be described as follows. To each of the 7-week male Brown Norway rats, LPS (derived from E. coli., strain 0111: B4) 100 µg was intratracheally administered under anesthetic with ether, thereby inducing inflammation. Two days after administration of LPS, the rat was slaughtered under anesthetic with pentobarbital, and the extirpated respiratory tract was washed with PBS containing 5mM EDTA and 5mM dithiothreitol (3 mL). The amount of mucus contained in the collected BALF was determined through a lectin assay method employing UEA-1. Each test drug was suspended in a 0.5% HPMC, and the suspension was orally administered one hour before administration of LPS and on the following day. In Table 2, numerical data are represented by mean value ± standard deviation (each group: 6 samples). Percent inhibition (%) was calculated in the same way as in Test Example 1.

Compound	inhibition at 1 µM (NCI-H292 cells) [%]	inhibition at 3 µM (NCI-H292 cells) [%]	inhibition at 10 µM (NCI-H292 cells) [%]	production of mucin (effect in words) (NCI-H292 cells)	hyperplasia of goblet cells (effect in words) [1]	Mucus level of BALF (Brown Norway rats; 10 mg/kg oral) [ng/mL]	Percent inhibition (% ) (Brown Norway rats; 10 mg/kg oral) [%]	Mucus level of BALF (Brown Norway rats; 30 mg/kg oral) [ng/mL]	Percent inhibition (% ) (Brown Norway rats; 30 mg/kg oral) [%]
COc1ccc([C@]2(C#N)CC[C@@H](C(=O)O)CC2)cc1OC1CCCC1 [Cilomilast, cilomilast, reference compound]	-21.4	-17.2	-35.2	promoted production of mucin	–	–	–	–	–
COc1ccc(-c2nc3cc(-n4cncn4)ccc3[nH]2)cc1OC [Compound 3]	60	74.9	83.9	–	–	–	–	–	–
O=C(Nc1c(Cl)cncc1Cl)c1ccc(OC(F)F)c(OCC2CC2)c1 [Roflumilast, roflumilast, reference compound]	-37.4	-28.7	-16.8	promoted production of mucin	–	–	–	–	–
COc1ccc(-c2nc3cc(-n4cncn4)ccc3[nH]2)cc1OCC1CC1 [Compound 1]	18.1	49.4	88.6	–	inhibitory effect	202.4 ± 93.1	53.2 ± 25.7	166.6 ± 43.6	63.0 ± 12.0
COc1ccc(-c2nc3cc(-n4cncn4)ccc3[nH]2)cc1OCC(C)C [Compound 6]	15.4	51.4	102	–	–	–	–	–	–
COc1cc(-c2nc3cc(-n4cncn4)ccc3[nH]2)ccc1OCC1CC1 [Compound 4]	22.7	48.8	–	–	–	–	–	–	–
COc1ccc(-c2nc3cc(-n4cncn4)ccc3[nH]2)cc1OC1CCCC1 [Compound 2]	57.1	53.3	80.8	–	–	–	–	–	–
